Results on 28 compounds are retold here after US9540392B2, “Thienopyrimidines” (BAYER PHARMA AKTIENGESELLSCHAFT, priority 2012, dated 2017).

T1 sequence (Q9BUB5 1-424 isoform Q9BUB5-2 T344D): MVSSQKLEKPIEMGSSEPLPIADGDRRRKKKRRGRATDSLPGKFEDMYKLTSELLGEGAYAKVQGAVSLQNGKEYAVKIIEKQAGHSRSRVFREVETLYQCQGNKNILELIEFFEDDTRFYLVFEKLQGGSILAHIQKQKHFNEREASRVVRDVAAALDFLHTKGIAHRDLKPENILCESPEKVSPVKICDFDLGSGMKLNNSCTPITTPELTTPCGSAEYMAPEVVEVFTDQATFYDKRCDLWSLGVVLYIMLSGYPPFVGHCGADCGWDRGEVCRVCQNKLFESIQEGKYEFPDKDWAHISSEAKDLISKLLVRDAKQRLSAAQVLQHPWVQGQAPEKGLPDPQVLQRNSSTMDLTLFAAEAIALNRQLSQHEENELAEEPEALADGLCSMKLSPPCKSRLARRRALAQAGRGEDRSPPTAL

The assay has as its target T1, human full-length MKNK1 (Homo sapiens, UniProt Q9BUB5, T385D).
T1 construct: GST (N); purchased Carna Biosciences 02-145; host or cells: insect cells (baculovirus expression system)
The assay can be described thus: MKNK1 kinase high ATP assay (TR-FRET). The class given is biochemical. As to conditions: 2 mM ATP, after preincubation with MKNK1; read-out: MKNK1 IC50 (MKNK1 high ATP). In short, it runs like this:
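Compound was preincubated 15 min at 22° C. with MKNK1 in 50 mM HEPES pH 7.5, 5 mM MgCl2, 1.0 mM DTT, then the reaction ran 30 min at 22° C. with 2 mM ATP and 0.06 μM biotinylated peptide (final).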
(In general: Time-resolved FRET reads energy transfer from a long-lived donor to a nearby acceptor.)
For the compound `CCOc1cc2[nH]ncc2cc1Nc1ncnc2sc3c(c12)CCC(C(=O)N(C)CCN)C3` (racemic) [Example 271, (RS)-5-({7-[(2-Ammonioethyl)(methyl)carbamoyl]-5,6,7,8-tetrahydro[1]benzothieno[2,3-d]pyrimidin-4-yl}amino)-6-ethoxy-1H-indazol-1-ium bis(trifluoroacetate)], the IC50 (as a rule, the concentration that gives 50% inhibition) is 0.4 nM.
Under `CC(C)NC(=O)C1CCc2c(sc3ncnc(Nc4ccc5[nH]ncc5c4)c23)C1` (stereo not shown) [Example 6, 4-(1H-Indazol-5-ylamino)-N-isopropyl-5,6,7,8-tetrahydro[1]benzothieno[2,3-d]pyrimidine-7-carboxamide] stands 4 nM; under `COc1cc2[nH]ncc2cc1Nc1ncnc2sc3c(c12)CCC(C(=O)N1[C@H](C)CC[C@H]1C)C3` (mixture of isomers) [Example 178, [(2R,5R)-2,5-Dimethylpyrrolidin-1-yl]{(7RS)-4-[(6-methoxy-1H-indazol-5-yl)amino]-5,6,7,8-tetrahydro[1]benzothieno[2,3-d]pyrimidin-7-yl}methanone], 0.2 nM.
Take `O=C(NC1(c2ccccc2)CC1)C1CCc2c(sc3ncnc(Nc4ccc5[nH]ncc5c4)c23)C1` (racemic) [Example 147, (RS)-4-(1H-indazol-5-ylamino)-N-(1-phenylcyclopropyl)-5,6,7,8-tetrahydro[1]benzothieno[2,3-d]pyrimidine-7-carboxamide]: the 50% inhibitory concentration (IC50) was 3.7 nM.
The result for `CCN(CCO)C(=O)C1CCc2c(sc3ncnc(Nc4cc5cn[nH]c5cc4OC)c23)C1` (racemic) [Example 171, (RS)—N-Ethyl-N-(2-hydroxyethyl)-4-[(6-methoxy-1H-indazol-5-yl)amino]-5,6,7,8-tetrahydro[1]benzothieno[2,3-d]pyrimidine-7-carboxamide] reads 0.4 nM; that for `CN(C(=O)C1CCc2c(sc3ncnc(Nc4ccc5[nH]ncc5c4)c23)C1)c1ccccc1` (racemic) [Example 91, (RS)-4-(1H-indazol-5-ylamino)-N-methyl-N-phenyl-5,6,7,8-tetrahydro[1]benzothieno[2,3-d]pyrimidine-7-carboxamide], 6.6 nM; that for `O=C(NCCc1c[nH]cn1)C1CCc2c(sc3ncnc(Nc4ccc5[nH]ncc5c4)c23)C1` (racemic) [Example 92, (RS)-N-[2-(1H-imidazol-4-yl)ethyl]-4-(1H-indazol-5-ylamino)-5,6,7,8-tetrahydro[1]benzothieno[2,3-d]pyrimidine-7-carboxamide], 9.8 nM.
Under `CCN(C)C(=O)C1CCc2c(sc3ncnc(Nc4cc5cn[nH]c5cc4OC)c23)C1` (racemic) [Example 179, (RS)—N-Ethyl-4-[(6-methoxy-1H-indazol-5-yl)amino]-N-methyl-5,6,7,8-tetrahydro[1]benzothieno[2,3-d]pyrimidine-7-carboxamide] stands 0.7 nM.
With `CCN1CCN(C(=O)C2CCc3c(sc4ncnc(Nc5ccc6[nH]ncc6c5)c34)C2)CC1` (racemic) [Example 119, (RS)-(4-ethylpiperazin-1-yl)[4-(1H-indazol-5-ylamino)-5,6,7,8-tetrahydro[1]benzothieno[2,3-d]pyrimidin-7-yl]methanone], the half-maximal inhibitory concentration (IC50) came to 15.9 nM.
The result for `COc1cc2[nH]ncc2cc1Nc1ncnc2sc3c(c12)CCC(C(=O)N1CC2(CCO2)C1)C3` (racemic) [Example 260, (RS)-{4-[(6-Methoxy-1H-indazol-5-yl)amino]-5,6,7,8-tetrahydro[1]benzothieno[2,3-d]pyrimidin-7-yl}(1-oxa-6-azaspiro[3.3]hept-6-yl)methanone] reads 0.7 nM; that for `O=C(NCc1cccs1)C1CCc2c(sc3ncnc(Nc4ccc5[nH]ncc5c4)c23)C1` (racemic) [Example 90, (RS)-4-(1H-indazol-5-ylamino)-N-(thiophen-2-ylmethyl)-5,6,7,8-tetrahydro[1]benzothieno[2,3-d]pyrimidine-7-carboxamide], 16.4 nM; that for `CN(Cc1cccc(F)c1)C(=O)C1CCc2c(sc3ncnc(Nc4ccc5[nH]ncc5c4)c23)C1` (racemic) [Example 145, (RS)-N-(3-fluorobenzyl)-4-(1H-indazol-5-ylamino)-N-methyl-5,6,7,8-tetrahydro[1]benzothieno[2,3-d]pyrimidine-7-carboxamide], 4.9 nM.
Under `O=C(NCc1ccc(C(F)(F)F)cc1)C1CCc2c(sc3ncnc(Nc4ccc5[nH]ncc5c4)c23)C1` (stereo not shown) [Example 28, 4-(1H-Indazol-5-ylamino)-N-[4-(trifluoromethyl)benzyl]-5,6,7,8-tetrahydro[1] benzothieno [2,3-d]pyrimidine-7-carboxamide] stands 4 nM.
Under `O=C(NCCN1CCOCC1)C1CCc2c(sc3ncnc(Nc4ccc5[nH]ncc5c4)c23)C1` (stereo not shown) [Example 42, 4-(1H-Indazol-5-ylamino)-N-[2-(morpholin-4-yl)ethyl]-5,6,7,8-tetrahydro[1] benzothieno [2,3-d]pyrimidine-7-carboxamide] stands 9 nM; under `COc1cccc(NC(=O)C2CCc3c(sc4ncnc(Nc5ccc6[nH]ncc6c5)c34)C2)c1` (stereo not shown) [Example 13, 4-(1H-indazol-5-ylamino)-N-(3-methoxyphenyl)-5,6,7,8-tetrahydro[1]benzothieno[2,3-d]pyrimidine-7-carboxamide], 7 nM; under `CN(C)C(=O)C1CCc2c(sc3ncnc(Nc4cc5cn[nH]c5cc4OCCCl)c23)C1` (racemic) [Example 266, (RS)-4-{[6-(2-Chloroethoxy)-1H-indazol-5-yl]amino}-N,N-dimethyl-5,6,7,8-tetrahydro[1]benzothieno[2,3-d]pyrimidine-7-carboxamide], 1.2 nM.
Regarding `CC(C)Oc1cc2[nH]ncc2cc1Nc1ncnc2sc3c(c12)CCC(C(=O)N(C)C(C)C)C3` (racemic) [Example 215, (RS)—N-Methyl-N-(propan-2-yl)-4-{[6-(propan-2-yloxy)-1H-indazol-5-yl]amino}-5,6,7,8-tetrahydro[1]benzothieno[2,3-d]pyrimidine-7-carboxamide], the concentration for half-maximal inhibition (IC50) amounted to 0.5 nM.
The result for `CN(Cc1ccn(C)n1)C(=O)C1CCc2c(sc3ncnc(Nc4ccc5[nH]ncc5c4)c23)C1` (racemic) [Example 137, (RS)-4-(1H-indazol-5-ylamino)-N-methyl-N-[(1-methyl-1H-pyrazol-3-yl)methyl]-5,6,7,8-tetrahydro[1]benzothieno[2,3-d]pyrimidine-7-carboxamide] reads 15.6 nM.
The result for `CC(C)Oc1cc2[nH]ncc2cc1Nc1ncnc2sc3c(c12)CCC(C(=O)N1CCCCC1)C3` (racemic) [Example 213, (RS)-Piperidin-1-yl(4-{[6-(propan-2-yloxy)-1H-indazol-5-yl]amino}-5,6,7,8-tetrahydro[1]benzothieno[2,3-d]pyrimidin-7-yl)methanone] reads 1.5 nM; that for `O=C(C1CCc2c(sc3ncnc(Nc4ccc5[nH]ncc5c4)c23)C1)N1CCN(C(=O)N2CCCC2)CC1` (stereo not shown) [Example 52, [4-(1H-Indazol-5-ylamino)-5,6,7,8-tetrahydro[1]benzothieno [2,3-d]pyrimidin-7-yl][4-(pyrrolidin-1-ylcarbonyl)piperazin-1-yl]methanone], 20 nM; that for `Cn1ccc(NC(=O)C2CCc3c(sc4ncnc(Nc5ccc6[nH]ncc6c5)c34)C2)n1` (racemic) [Example 140, (RS)-4-(1H-indazol-5-ylamino)-N-(1-methyl-1H-pyrazol-3-yl)-5,6,7,8-tetrahydro[1]benzothieno[2,3-d]pyrimidine-7-carboxamide], 12.4 nM.
The result for `COc1cc2[nH]ncc2cc1Nc1ncnc2sc3c(c12)CCC(C(=O)N1CCC(C)(C)C1)C3` (racemic) [Example 180, (RS)-(3,3-Dimethylpyrrolidin-1-yl){4-[(6-methoxy-1H-indazol-5-yl)amino]-5,6,7,8-tetrahydro[1]benzothieno[2,3-d]pyrimidin-7-yl}methanone] reads 0.8 nM.
For the compound `CCOc1cc2[nH]ncc2cc1Nc1ncnc2sc3c(c12)CCC(C(=O)N(CC)CCOC)C3` (racemic) [Example 273, (RS)-4-[(6-Ethoxy-1H-indazol-5-yl)amino]-N-ethyl-N-(2-methoxyethyl)-5,6,7,8-tetrahydro[1]benzothieno[2,3-d]pyrimidine-7-carboxamide], the concentration for half-maximal inhibition (IC50) came to 0.2 nM.
The result for `CC(=O)N1CCN(CCNC(=O)C2CCc3c(sc4ncnc(Nc5ccc6[nH]ncc6c5)c34)C2)CC1` (racemic) [Example 168, (RS)-N-[2-(4-acetylpiperazin-1-yl)ethyl]-4-(1H-indazol-5-ylamino)-5,6,7,8-tetrahydro[1]benzothieno[2,3-d]pyrimidine-7-carboxamide] reads 17.4 nM; that for `CC(C)(C)NC(=O)C1CCc2c(sc3ncnc(Nc4ccc5[nH]ncc5c4)c23)C1` (racemic) [Example 102, (RS)-N-tert-butyl-4-(1H-indazol-5-ylamino)-5,6,7,8-tetrahydro[1]benzothieno[2,3-d]pyrimidine-7-carboxamide], 14.9 nM.
The result for `O=C(NC1CC1)C1CCc2c(sc3ncnc(Nc4ccc5[nH]ncc5c4)c23)C1` (racemic) [Example 80, (RS)-N-Cyclopropyl-4-(1H-indazol-5-ylamino)-5,6,7,8-tetrahydro[1]benzothieno[2,3-d]pyrimidine-7-carboxamide] reads 9.1 nM.
The result for `CC(=O)N[C@@H]1CCN(C(=O)C2CCc3c(sc4ncnc(Nc5ccc6[nH]ncc6c5)c34)C2)C1` (mixture of isomers) [Example 124, (RS)-N-(1-{[4-(1H-indazol-5-ylamino)-5,6,7,8-tetrahydro[1]benzothieno[2,3-d]pyrimidin-7-yl]carbonyl}pyrrolidin-3-yl)acetamide] reads 8 nM; that for `COc1cc2[nH]ncc2cc1Nc1ncnc2sc3c(c12)CCC(C(=O)N1CC(OC(=O)N(C)C)C1)C3` (racemic) [Example 275, (RS)-1-({4-[(6-Methoxy-1H-indazol-5-yl)amino]-5,6,7,8-tetrahydro[1]benzothieno[2,3-d]pyrimidin-7-yl}carbonyl)azetidin-3-yl dimethylcarbamate], 19.8 nM.
